# Assay results published in patent US12631623B2, “Heart tissue model” (IMBA—INSTITUT FÜR MOLEKULARE BIOTECHNOLOGIE GMBH, priority 2020, dated 2026).
# “Also recorded” adds a separate entry of the source.
# B1: Noggin (protein, UniProt Q13253 28-232, looked up)
# Noggin: QHYLHIRPAPSDNLPLVDLIEHPDPIFDPKEKDLNETLLRSLLGGHYDPGFMATSPPEDRPGGGGGAAGGAEDLAELDQLLRQRPSGAMPSEIKGLEFSEGLAQGKKQRLSKKLRRKLQMWLWSQTFCPVLYAWNDLGSRFWPRYVKVGSCFSKRSCSVPEGMVCKPSKSVHLTVLRWRCQRRGGQRCGWIPIQYPIISECKCSC
# B2: BMP4: bone morphogenetic protein 4 (protein, UniProt P12644 293-408, looked up)
# Bone morphogenetic protein 4: SPKHHSQRARKKNKNCRRHSLYVDFSDVGWNDWIVAPPGYQAFYCHGDCPFPLADHLNSTNHAIVQTLVNSVNSSIPKACCVPTELSAISMLYLDEYDKVVLKNYQEMVVEGCGCR
# What was measured:
# hPSCs (WTC MYH10-GFP) = assay: Mesoderm induction of hPSC aggregates (T / SOX2 staining); type: cell-based, human; details: 8 uM CHIR99021, 40 h of mesoderm induction, 1000 hPSCs
# Procedure: (§1) Immunostaining—Following fixation with 4% PFA (Sigma-Aldrich, #16005) specimens were washed twice in 1×PBS and the 3D constructs additionally once in PBS/Tween20 (0.1%, Sigma-Aldrich, #P1379) for at least 15 min each. Tissues were incubated in blocking solution consisting of PBS (Gibco, #14190094) with 4% goat (Bio-Rad Laboratories, #C07SA) or donkey serum (Bio-Rad Laboratories, #C06SB) and 0.2% Triton X-100 (Sigma-Aldrich, #T8787) for at least 15 minutes. The primary antibody was subsequently applied in above blocking buffer for 1-3 hours at room temperature or overnight at 4° C. in the case of the 2D samples and 2 days at 4° C. on a shaker for 3D samples. Following washing twice with PBS/Tween20, 3D tissues were incubated with the secondary antibody solution at 4° C. on a shaker for 2 more days while 2D samples were incubated up to 2 hours at room temperature. Following these washing steps and an additional PBS wash, tissues were ready for analysis or storage at 4° C. in PBS, while slides were mounted using fluorescence mounting medium (Dako Agilent Pathology Solutions, #S3023). 3D tissues were cleared with FocusClear (CellExplorer Labs, #FC-101) prior to imaging.
# cardioids (hPSC-derived) [1] = assay: RNA-seq gene expression of cardioids induced with high vs low CHIR99021; type: cell-based, human
# Procedure: RNA isolation and RNA-seq/Smart-Seq2/single-cell (sc)RNA-seq preparation—RNA was isolated with the RNeasy Mini Kit (Qiagen, #74104). Generation of the bulk RNA-seq libraries was performed according to the manufacturer's instructions with QuantSeq 3′ mRNA-Seq Library Prep Kit FWD (Lexogen GmbH, #015). After the preparation of the libraries, samples were checked for an adequate size distribution with a fragment analyzer (Advanced Analytical Technologies, Inc) and were submitted to the Vienna Biocenter Core Facilities (VBCF) Next-Generation-Sequencing (NGS) facility for sequencing. For Smart-Seq2 analysis, 400 cells were sorted into lysis buffer and stored at −80° C. until further processing. […]
# Bioinformatic analysis—Trimming was performed for Smart-Seq2 experiments using trim-galore v0.5.0 and for QuantSeq 3′ mRNA-Seq experiments using BBDuk v38.06 (ref=polyA.fa.gz,truseq.fa.gz k=13 ktrim=r useshortkmers=t mink=5 qtrim=r trimq=10 minlength=20). Reads mapping to abundant sequences included in the iGenomes UCSC hg38 reference (human rDNA, human mitochondrial chromosome, phiX174 genome, adapter) were removed using bowtie2 v2.3.4.1 alignment. Remaining reads were analyzed using genome and UCSC gene annotation provided in the iGenomes UCSC hg38 bundle (support.illumina.com/sequencing/sequencingsoftware/igenome.html). […]
# [2] = test system: cardiac organoids (hPSC-derived); assay: Reporter imaging / immunostaining of cardiomyocyte and endothelial cell organisation in cardiac organoids; type: cell-based, human; details: for location of endothelial cell layer: with VEGF; for organization of cardiomyocytes and endothelial cells: Wnt-inhibitor during differentiation, CHIR99021 5 μM or 6 μM; for EC lining of cavity: VEGF(-A) added after CM specification stage; for separation of CM and EC layers: VEGF(-A) included at cardiac mesoderm stage
# Procedure: as §1
# (§2) Image acquisition and analysis—Fixed whole mounts and sections were imaged with point scanning (upright Zeiss LSM800 Axio Imager with an Apochromat 20× objective lens at 1× magnification) and spinning disk confocal microscopes (Olympus spinning disk system based on a IX3 Series (IX83) inverted microscope, equipped with a Yokogawa W1 spinning disc), or a widefield microscope (Zeiss Axio Imager 2, Axio Vert A1, Panoramic FLASH 250 II System). Live imaging experiments were performed using a Zeiss Celldiscoverer 7 or above-mentioned spinning disk microscope. For high-throughput imaging and analysis, images were taken with a Celigo Imaging Cytometer microscope (Nexcelom Biosciences, LLC) and analyzed with custom-made scripts written for the FIJI software. Sections for transmission electron microscopy were examined with aFEI Morgagni 268D TEM (FEI, Eindhoven, The Netherlands) operated at 80 kV. Images were acquired using an 11 megapixel Morada CCD camera (Olympus-SIS).
# cardioids (hPSC-derived) [3] = assay: High-throughput imaging of cardioid diameter and cavity expansion at the cardiac mesoderm stage (day 3.5); type: cell-based, human; details: for cardiac mesoderm density / cell number per cardioid: BMP inhibition with Noggin or LDN193189, initial two days of cardiac mesoderm stage; for cavity expansion / cavity morphogenesis / organoid/cardioid diameter (size): Noggin 100 ng/ml or LDN193189 0.2 μM, initial two days of cardiac mesoderm stage
# Procedure: as §2
# We next used cardioids to dissect how signaling controls intrinsic morphogenesis and patterning during cardioid specification. To quantify phenotypes with high statistical power, we combined the high-throughput cardioid platform with a custom-made semi-automated imaging/analysis FIJI-pipeline. Using this setup, we examined which signals control cardioid self-organization and at what stage of mesodermal specification they act. We first systematically tested the effects of key mesoderm and cardiac mesoderm signaling dosages (e. g. WNT, BMP) on cardiac cavity self-morphogenesis. […] An intermediate WNT dosage promoted both cavity morphogenesis and CM specification. The optimal WNT activation range was consistent for each hPSC line but differed across lines, consistent with numerous studies showing line-specific signaling responses. Importantly, the highest WNT dosage promoted cavity formation without CM specification (FIG. 16A), highlighting a striking difference in signaling control of cell-fate specification versus morphogenesis.
# [4] = test system: cardiac organoids (hPSC-derived, WTC MYL7-GFP/CDH5-Tomato)
# Procedure: Generation of cardiac organoids with endothelial lining—Pluripotency maintenance medium was refreshed 6 h prior to seeding cells. Then, 2500-3000 hPSC were seeded into ultra-low cluster 96-well plates (Corning) in FLyAB(Ins) medium with CHIR (5-6 μM) and ROCKi (5 μM) for 36 h-40 h.
# In order to stop endothelial cell differentiation, 100 nM sunitinib malate (Biovision, #1611) was added from the cardiac mesoderm stage (BFIIWPRa) onward.
# Flow cytometry—Cells were dissociated using the CM dissociation kit (Stem Cell Technologies, #05025). After centrifugation for 3 min at 130 g, cells were resuspended in 300 μl PBS supplemented with 0.5 mM EDTA (Biological Industries, #01-862-1B) and 10% FBS (PAA Laboratories, #A15-108). Cells were acquired with a FACS LSR Fortessa II (BD) and analysed with FlowJo V10 (FlowJo, LLC) software. FACS sorting was performed using a Sony SH800 Cell Sorter (Sony Biotechnology).
# [5] = test system: cardiac mesoderm cavity structures (cardioids); assay: Dextran incorporation assay in cardioids; type: cell-based, human; details: low-molecular-weight (4 kDa) dextran, cardiac mesoderm stage
# Procedure: Dextran and Fluo-4 incorporation assays—A 4.4 kDa Dextran conjugated with TAMRA (Sigma Aldrich, T1037) was added to the cardioid culture between 64 h and 90 h. Cardioids were live imaged as cavities started to form. To image and analyze calcium-transients, 3D cardioids and 2D CM were loaded with Fluo-4 AM (Thermo Fisher Scientific, #F14217). After a 15-min incubation, cardioids were incubated for another 15 min in Tyrode's salt solution (Sigma Aldrich, #T2397). Subsequently, cardioids were imaged live and videos were analyzed with FIJI software (Schindelin et al., 2012, Nature Methods 9, 676-682) to acquire the signal intensity (F) of regions of interest and background (F0).
# [6] = +Sunitinib (100 μM [sic]), end of differentiation day 7.5
molecule,measurement,setting,value
Cc1c[nH]c(-c2cnc(NCCNc3ccc(C#N)cn3)nc2-c2ccc(Cl)cc2Cl)n1 [CHIR99021],"exit from pluripotency (T up, SOX2 down)",hPSCs (WTC MYH10-GFP),efficiently exited pluripotency
same,"EC genes (PECAM1, CDH5, VEGFA, TAL1, LMO2, ETV2) expression",cardioids (hPSC-derived) [1]; 4 μM CHIR99021 during mesoderm induction vs 8 μM,upregulated; also recorded: higher expression of EC-specifying genes
same,"BMP target genes (HAND1, IRX3, BMP4, BMP2, BMPR2) expression",cardioids (hPSC-derived) [1]; 8 μM during mesoderm induction (cavity-forming conditions),upregulated
same,endothelial lining of cavities,"[2]; 4 uM CHIR99021 during induction, d27, WTC MYL7-GFP",lining of internal cavities by endothelial (CD31+) cells
same,apoptosis (cleaved caspase 3 staining),[2]; 4 μM CHIR condition,increased levels inside the EC ring
same,apoptosis (cleaved caspase 3 staining),[2]; 6 μM CHIR condition,low levels of apoptosis
same,location of endothelial cell layer,"[2]; high WNT activity, 5-8 μM CHIR during mesoderm induction",compartment/lining around the cardiomyocytes
same,location of endothelial cell layer,"[2]; lower WNT activity, 4 μM (1-4 μM) CHIR during mesoderm induction",inner ring of EC expressing CD31
same,location of endothelial cell layer,"[2]; lower WNT activity, 4 μM (1-4 μM) CHIR during mesoderm induction, listed as CHIR",inside lining facing the cavity
same,cavity defect of HAND1 KO organoids,"cardioids (hPSC-derived) [3]; increased CHIR99021 during mesoderm induction, HAND1 KO (H9), d3.5",rescues cavity defect in HAND1 KO organoids
same,cardioid diameter / lumen expansion as function of CHIR99021 dosage,"cardioids (hPSC-derived) [3]; range of CHIR99021 concentrations during mesoderm induction, day 3.5",dramatic effects on cardioid diameter; also recorded: striking effects on lumen expansion
Cc1ccc2nc(NC(=O)CSc3nc4c(c(=O)n3-c3ccccc3)SCC4)sc2c1 [IWP2],organization of cardiomyocytes and endothelial cells,[2],two-layered organization
O=C(Nc1cccc2cccnc12)c1ccc(N2C(=O)[C@@H]3[C@H](C2=O)[C@@H]2C=C[C@H]3C2)cc1 [IWR-1],organization of cardiomyocytes and endothelial cells,[2],two-layered organization
c1ccc2c(-c3cnn4cc(-c5ccc(N6CCNCC6)cc5)cnc34)ccnc2c1 [LDN193189],cardiac mesoderm density,cardioids (hPSC-derived) [3],denser cardiac mesoderm
same,cell number per cardioid,cardioids (hPSC-derived) [3],remained stable
same,cavity expansion / cavity morphogenesis,cardioids (hPSC-derived) [3],interfere with cavity expansion; also recorded: impaired cavity morphogenesis
same,organoid/cardioid diameter (size),cardioids (hPSC-derived) [3]; day 3.5,significantly decreased diameter; also recorded: reduces cardioid diameter; also recorded: decreased cardioid size
CCN(CC)CCNC(=O)c1c(C)[nH]c(/C=C2\C(=O)Nc3ccc(F)cc32)c1C [Sunitinib],MYL7-GFP expressing cardiomyocytes,[4]; [6],96%
same,cells expressing the endothelial marker CDH5-Tomato,[4]; [6],3%
same,cardiomyocytes in organoids,[4]; Sunitinib 100 nM in the first 10 days of differentiation or longer,over 95%
Oc1nc(-c2ccc(C(F)(F)F)cc2)nc2c1CSCC2 [XAV939],organization of cardiomyocytes and endothelial cells,[2],two-layered organization
VEGF,cardiomyocytes (MYL7+) in organoids,"[4]; VEGF 200 ng/ml at cardiac mesoderm stage, intermediate WNT activation",~41%
same,endothelial cells (CDH5+) in organoids,"[4]; VEGF 200 ng/ml at cardiac mesoderm stage, intermediate WNT activation, listed as VEGF-A",53%
same,cell composition of cardioid-like structures,"[2]; VEGF during cardiac mesoderm stage, no WNT inhibition","containing only ECs and fibroblast-like cells without CMs; also recorded: contained primarily ECs and COL1A1^+ cells, without CMs"
same,EC lining of cavity,[2],occasionally led to partial EC lining of cavities but often also to ECs forming a partial outside layer
same,EC lining of cavity,[2]; listed as VEGF-A,occasionally observed formation of an EC layer lining the cardioid cavity
same,separation of CM and EC layers,[2],separate into a CM and an EC layer with a space between them
same,separation of CM and EC layers,[2]; listed as VEGF-A,separated into CM and EC layers
dextran,permeability of cavity structures,[5],impermeable
same,permeability of cavity structures,[5]; listed as dextrans,not permeable
B1,cardiac mesoderm density,cardioids (hPSC-derived) [3],denser cardiac mesoderm
same,cell number per cardioid,cardioids (hPSC-derived) [3],remained stable
same,cavity expansion / cavity morphogenesis,cardioids (hPSC-derived) [3],interfere with cavity expansion; also recorded: heavily impaired cavity expansion; also recorded: impaired cavity morphogenesis
same,organoid/cardioid diameter (size),cardioids (hPSC-derived) [3]; day 3.5,significantly decreased diameter; also recorded: reduces cardioid diameter; also recorded: decreased cardioid size
B2,cavity expansion,"cardioids (hPSC-derived) [3]; BMP signalling dosage at cardiac mesoderm stage, higher levels of BMP4",drove cavity expansion
